{"source": "patent US20190137505A1", "about": "(THE ARIZONA BOARD OF REGENTS ON BEHALF OF THE UNIVERSITY OF …, priority 2015, published 2019)", "target": "T1, plasminogen (Homo sapiens, UniProt P00747)", "T1 construct": "Glu-Pg, uPA, tPA, fibrinogen, and chromogenic substrate for Pn were purchased from Molecular Innovations (Novi, Mich.); purchased Molecular Innovations (Novi, Mich.)", "T1 sequence (P00747 20-810 limits assumed)": "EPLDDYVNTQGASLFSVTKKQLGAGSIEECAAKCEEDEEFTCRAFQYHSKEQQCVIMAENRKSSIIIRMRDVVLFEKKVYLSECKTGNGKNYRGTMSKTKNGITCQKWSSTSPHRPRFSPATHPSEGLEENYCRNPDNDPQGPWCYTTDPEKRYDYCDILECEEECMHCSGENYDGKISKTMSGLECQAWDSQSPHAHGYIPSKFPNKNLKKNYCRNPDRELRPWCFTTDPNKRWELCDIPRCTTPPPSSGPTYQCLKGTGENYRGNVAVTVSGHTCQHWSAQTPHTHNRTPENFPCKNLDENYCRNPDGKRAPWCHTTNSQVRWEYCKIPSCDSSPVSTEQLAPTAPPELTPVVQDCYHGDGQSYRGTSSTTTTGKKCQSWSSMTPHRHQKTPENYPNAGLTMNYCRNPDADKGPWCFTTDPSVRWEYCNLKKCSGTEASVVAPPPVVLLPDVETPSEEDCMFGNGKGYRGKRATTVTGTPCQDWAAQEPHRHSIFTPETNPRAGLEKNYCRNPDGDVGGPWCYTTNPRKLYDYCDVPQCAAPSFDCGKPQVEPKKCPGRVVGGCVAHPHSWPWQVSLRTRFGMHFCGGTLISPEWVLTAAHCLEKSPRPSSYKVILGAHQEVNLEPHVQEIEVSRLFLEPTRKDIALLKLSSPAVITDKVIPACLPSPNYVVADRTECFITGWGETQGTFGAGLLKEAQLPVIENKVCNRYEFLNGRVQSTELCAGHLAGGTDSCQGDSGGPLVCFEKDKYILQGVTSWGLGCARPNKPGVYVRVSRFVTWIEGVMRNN", "assay": "LC-MS/MS identification of sites of MG adduction on plasminogen in vitro (Tables 1 and 12)", "details": "500 μM MG, 24 hr", "procedure": "10 μg Pg was incubated with MG (50-500 μM) in tris-buffered saline (TBS) for 24 hours at 37° C. Following modification, sample volumes were increased to 150 μL and placed in 5 kDa spin filters to reduce volume and remove excess MG from solution.\nMG-modified (500 μM) and unmodified Pg control (same incubation conditions without MG) were added to 250 μL amount of rehydration buffer (6M urea, 2M thiourea, 2% CHAPS, 100 mM DTT, 0.5% 3-10 ampholytes) and 5 μL of 3-10 ampholytes (Bio-Rad). Sample rehydrated with a 13 cm 4-7 pH isoelectric focusing strip (GE Healthcare) overnight. Following rehydration, strips were placed in a Bio-Rad PROTEAN IEF Cell focusing instrument. Strips were first focused for 1 hour at 500 V, and then run at a maximum of 8,000V until the strips have reached a final total of 45,000 V/hrs at which point gels are held at 500V until removed. Focused strips were removed, reduced with DTT, cysteines carbamidomethylated with iodoacetamide, and run on a 4-20% gradient Criterion gel for 55 minutes at 200V. Gels were stained for stained according to manufacturer instructions with Imperial Blue Protein (ThermoScientific, Rockford, Ill.) and destained immediately with water. Gel bands were excised and trypsin digested.\nCoomassie stained gel-bands were excised and washed in ddH2O for 15 min. H2O was removed and bands were incubated in 50/50 acetonitrile (ACN):ddH2O for 15 min. ACN:ddH2O was removed and bands were incubated with ACN for 5 min. ACN was removed and gels were incubated with 100 mM ammonium bicarbonate (AMBIC). An equal volume of ACN was added to make 1:1 solution and was incubated for 15 min. The ACN/AMBIC solution was removed and remaining gel bands were dried by speed-vacuum. 10 mM dithiothreitol (DTT) was added to each band and incubated at 56° C. for 45 min. DTT was removed and sample brought to room temperature (RT). Iodoacetamide (55 mM) was added to each sample and incubated at RT for 30 min in dark. Iodoacetamide was removed and 100 mM AMBIC was added and bands were incubated for 5 min. An equal volume of ACN was added to make a 1:1 solution and incubated for 15 min. The ACN/AMBIC solution was removed and bands were dried by speed-vacuum. Bands were digested with trypsin (400 ng/band) in 50 mM AMBIC and incubated on ice for 45 min. Tryptic solution was removed and 50 mM AMBIC was added to each band and incubated overnight at 37° C. to complete digestion. Digests were acidified using 10% trifluoroacetic acid (TFA). Supernatant was saved. Band was covered with TFA:ACN (0.1%:60%) and sonicated at 20° C. water bath for 30 min. Supernatant was combined with previous fraction. Sampled were speed vacuumed to a final volume of 10 μL prior to LC-MS/MS analysis on an LTQ Orbitrap Velos mass spectrometer as described below.\nLC-MS/MS analysis of in-gel trypsin digested-proteins (Shevchenko et al., 1996) was carried out using a LTQ Orbitrap Velos mass spectrometer (Thermo Fisher Scientific, San Jose, Calif.) equipped with an Advion nanomate ESI source (Advion, Ithaca, N.Y.), following ZipTip (Millipore, Billerica, Mass.) C18 sample clean-up according to the manufacturer's instructions. Peptides were eluted from a C18 precolumn (100-μm id×2 cm, Thermo Fisher Scientific) onto an analytical column (75-μm ID×10 cm, C18, Thermo Fisher Scientific) using a 5-20% gradient of solvent B (acetonitrile, 0.1% formic acid) over 65 minutes, followed by a 20-35% gradient of solvent B over 25 minutes, all at a flow rate of 400 nl/min. Solvent A consisted of water and 0.1% formic acid. Data dependent scanning was performed by the Xcalibur v 2.1.0 software (Andon et al., 2002) using a survey mass scan at 60,000 resolution in the Orbitrap analyzer scanning m/z 350-1600, followed by collision-induced dissociation (CID) tandem mass spectrometry (MS/MS) of the fourteen most intense ions in the linear ion trap analyzer. […]"}
{"molecule": "CC(=O)C=O", "note": "[MG, Methylglyoxal]", "values": [{"measurement": "Spectra Observed", "setting": "site 312, MG-DH, RAPWC(+57)HTTNSQVR", "result": 10}, {"measurement": "Spectra Observed", "setting": "site 312, MG-HI, RAPWC(+57)HTTNSQVR", "result": 8}, {"measurement": "Spectra Observed", "setting": "site 324, MG-DH, RAPWC(+57)HTTNSQVRWEYC(+57)K", "result": 4}, {"measurement": "Spectra Observed", "setting": "site 324, MG-HI, APWC(+57)HTTN SQVRWEYC(+57)K", "result": 3}, {"measurement": "Spectra Observed", "setting": "site 324, MG-HI, RAPWC(+57)HTTNSQVRWEYC(+57)K", "result": 7}, {"measurement": "Spectra Observed", "setting": "site 389, MG-DH, C(+57)QSWSSMTPHRHQK", "result": 2}, {"measurement": "Spectra Observed", "setting": "site 389, MG-DH, KC(+57)QSWSSMTPHRHQK", "result": 1}, {"measurement": "Spectra Observed", "setting": "site 389, MG-HI, C(+57)QSWSSMTPHRHQK", "result": 4}, {"measurement": "Spectra Observed", "setting": "site 389, MG-HI, KC(+57)QSWSSMTPHRHQK", "result": 1}, {"measurement": "Spectra Observed", "setting": "site 474, MG-DH, GKRATTVTGTPC(+57)QDWAAQEPHR", "result": 1}, {"measurement": "Spectra Observed", "setting": "site 474, MG-DH, RATTVTGTPC(+57)QDWAAQEPHR", "result": 3}, {"measurement": "Spectra Observed", "setting": "site 474, MG-HI, GKRATTVTGTPC(+57)QDWAAQEPHR", "result": 4}, {"measurement": "Spectra Observed", "setting": "site 474, MG-HI, RATTVTGTPC(+57)QDWAAQEPHR", "result": 3}, {"measurement": "Spectra Observed", "setting": "site 493, MG-DH, ATTVTGTPC(+57)QDWAAQEPHRHSIFTPETNPR", "result": 4}, {"measurement": "Spectra Observed", "setting": "site 493, MG-DH, RATTVTGPC(+57)QDWAAQEPHRHSIFTPETNPR", "result": 3}, {"measurement": "Spectra Observed", "setting": "site 493, MG-HI, ATTVTGTPC(+57)QDWAAQEPHRHSIFTPETNPR", "result": 6}, {"measurement": "Spectra Observed", "setting": "site 493, MG-HI, RATTVTGPC(+57)QDWAAQEPHRHSIFTPETNPR", "result": 4}, {"measurement": "Spectra Observed", "setting": "site 504, MG-DH, HSIFTPETNPRAGLEK", "result": 9}, {"measurement": "Spectra Observed", "setting": "site 504, MG-HI, HSIFTPETNPRAGLEK", "result": 16}, {"measurement": "Spectra Observed", "setting": "site 530, MG-DH, NPDGDVGGPWC(+57)YTTNPRK", "result": 9}, {"measurement": "Spectra Observed", "setting": "site 530, MG-HI, NPDGDVGGPWC(+57)YTTNPRK", "result": 12}, {"measurement": "Spectra Observed", "setting": "site 530, MG-HI, NYC(+57)RNPDGDVGGPWC(+57)YTTNPRK", "result": 3}, {"measurement": "Spectra Observed", "setting": "site 561, MG-DH, C(+57)PGRVVGGC(+57)VAHPHSWPWQVSLR", "result": 5}, {"measurement": "Spectra Observed", "setting": "site 561, MG-DH, CPGRVVGGCVAHPHSWPWQVSLR", "result": 1}, {"measurement": "Spectra Observed", "setting": "site 561, MG-DH, KC(+57)PGRVVGGC(+57)VAHPHSWPWQVSLR", "result": 10}, {"measurement": "Spectra Observed", "setting": "site 561, MG-DH, KCPGRVVGGCVAHPHSWPWQVSLR", "result": 1}, {"measurement": "Spectra Observed", "setting": "site 561, MG-HI, C(+57)PGRVVGGC(+57)VAHPHSWPWQVSLR", "result": 5}, {"measurement": "Spectra Observed", "setting": "site 561, MG-HI, KC(+57)PGRVVGGC(+57)VAHPHSWPWQVSLR", "result": 12}, {"measurement": "Spectra Observed", "setting": "site 582, MG-DH, TRFGMHFC(+57)GGTLISPEWVLTAAHC(+57)LEK", "result": 1}, {"measurement": "Spectra Observed", "setting": "site 582, MG-HI, TRFGM(+16)HFC(+57)GGTLISPEWVLTAAHC(+57)LEK", "result": 1}, {"measurement": "Spectra Observed", "setting": "site 582, MG-HI, TRFGMHFC(+57)GGTLISPEWVLTAAHC(+57)LEK", "result": 1}, {"measurement": "Spectra Observed", "setting": "site 644, MG-HI, LFLEPTRK", "result": 2}, {"measurement": "Spectra Observed", "setting": "site 712, MG-DH, VC(+57)NRYEFLNGR", "result": 5}, {"measurement": "Spectra Observed", "setting": "site 712, MG-HI, VC(+57)NRYEFLNGR", "result": 4}, {"measurement": "Spectra Observed", "setting": "site 767, MG-DH, DKYILQGVTSWGLGC(+57)ARPNKPGVYVR", "result": 8}, {"measurement": "Spectra Observed", "setting": "site 767, MG-DH, YILQGVTSWGLGC(+57)ARPNKPGVYVR", "result": 6}, {"measurement": "Spectra Observed", "setting": "site 767, MG-HI, DKYILQGVTSWGLGC(+57)ARPNKPGVYVR", "result": 11}, {"measurement": "Spectra Observed", "setting": "site 767, MG-HI, YILQGVTSWGLGC(+57)ARPNKPGVYVR", "result": 6}, {"measurement": "Spectra Observed", "setting": "site 779, MG-DH, VSRFVTWIEGVM(+16)R", "result": 5}, {"measurement": "Spectra Observed", "setting": "site 779, MG-DH, VSRFVTWIEGVMR", "result": 2}, {"measurement": "Spectra Observed", "setting": "site 779, MG-HI, VSRFVTWIEGVM(+16)R", "result": 9}, {"measurement": "Spectra Observed", "setting": "site 779, MG-HI, VSRFVTWIEGVMR", "result": 4}, {"measurement": "Spectra Observed", "setting": "site 789, MG-DH, FVTWIEGVM(+16)RNN", "result": 6}, {"measurement": "Spectra Observed", "setting": "site 789, MG-DH, FVTWIEGVMRNN", "result": 13}, {"measurement": "Spectra Observed", "setting": "site 789, MG-HI, FVTWIEGVM(+16)RNN", "result": 10}, {"measurement": "Spectra Observed", "setting": "site 789, MG-HI, FVTWIEGVMRNN", "result": 14}, {"measurement": "Spectra Observed", "setting": "sites 115/117, MG-DH, MG-HI, WSSTSPHRPRFSPATHPSEGLEENYC(+57)R", "result": 2}, {"measurement": "Spectra Observed", "setting": "sites 115/117, MG-DH, WSSTSPHRPRFSPATHPSEGLEENYC(+57)R", "result": 1}, {"measurement": "Spectra Observed", "setting": "sites 115/117, MG-HI, WSSTSPHRPRFSPATHPSEGLEENYC(+57)R", "result": 3}, {"measurement": "Spectra Observed", "setting": "sites 220/223, MG-DH, NPDRELRPWC(+57)FTTDPNKR", "result": 3}, {"measurement": "Spectra Observed", "setting": "sites 220/223, MG-HI, MG-DH, NPDRELRPWC(+57)FTTDPNKR", "result": 9}, {"measurement": "Spectra Observed", "setting": "sites 220/223, MG-HI, NPDRELRPWC(+57)FTTDPNKR", "result": 8}, {"measurement": "Spectra Observed", "setting": "sites 312/324, MG-DH, MG-HI, RAPWC(+57)HTTNSQVRWEYC(+57)K", "result": 7}, {"measurement": "Spectra Observed", "setting": "sites 312/324, MG-DH, RAPWC(+57)HTTNSQVRWEYC(+57)K", "result": 3}, {"measurement": "Spectra Observed", "setting": "sites 312/324, MG-HI, RAPWC(+57)HTTNSQVRWEYC(+57)K", "result": 2}, {"measurement": "Spectra Observed", "setting": "sites 474/493, MG-DH, MG-HI, RATTVTGTPCQDWAAQEPHRHSIFTPETNPR", "result": 1}, {"measurement": "Spectra Observed", "setting": "sites 474/493, MG-HI, RATTVTGTPC(+57)QDWAAQEPHRHSIFTPETNPR", "result": 1}, {"measurement": "Spectra Observed", "setting": "sites 489/504, MG-HI, MG-DH, ATTVTGTPC(+57)QDWAAQEPHRHSIFTPETNPRAGLEK", "result": 1}, {"measurement": "Spectra Observed", "setting": "sites 779/789, MG-DH, VSRFVTWIEGVM(+16)RNN", "result": 1}, {"measurement": "Spectra Observed", "setting": "sites 779/789, MG-HI, MG-DH, VSRFVTWIEGVM(+16)RNN", "result": 3}, {"measurement": "Spectra Observed", "setting": "sites 779/789, MG-HI, VSRFVTWIEGVM(+16)RNN", "result": 3}]}
